Literature values as cited in patent US20130259998A1, “FOODSTUFF PRESERVING COMPOSITION AND USE THEREOF” (NIACET B.V., priority 2012, published 2013).

Settings: ingredient as such

SMILES | pH as such
CC(=O)O.CC(=O)O.NC(=N\CCCCCC/N=C(N)/N=C(\N)Nc1ccc(Cl)cc1)/N=C(\N)Nc1ccc(Cl)cc1 [diacetate] | 4.5-5.0
CC(=O)[O-].[Na+] [sodium acetate] | 8.9
CC(O)C(=O)[O-].[Na+] (stereo not drawn) [sodium lactate] | 6.3
